Data as given in PubChem BioAssay AID2060483 (Molecular Pharmacology Branch, DTP, NCI, 2025).

Test system: K24384-001-R-PDC complex spheroids, viability
Test: Anticancer human tumor K24384-001-R-PDC patient-derived pancreatic adenocarcinoma cell line growth inhibition [GQUAD]
Conditions: for IC50: curve of first compound; for viability, T/C: stronger effect = lower value
How it was run: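 Multi-cell-type spheroids of tumor cells with HUVEC and mesenchymal stem cells, treated with drug combinations. Concentrations descend in half-log steps from near clinical Cmax, or from 10 microM where Cmax is unknown; viability read-out.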

[1] = second compound 0.0316 µM, first compound 0.0316 µM
[2] = second compound 0.0316 µM, first compound 0.1 µM
[3] = second compound 0.0316 µM, first compound 0.316 µM
[4] = second compound 0.0316 µM, first compound 1 µM
[5] = second compound 0.0316 µM, first compound 3.16 µM
[6] = second compound 0.0316 µM, first compound 10 µM
[7] = second compound 0.1 µM, first compound 0.0316 µM
[8] = second compound 0.1 µM, first compound 0.1 µM
[9] = second compound 0.1 µM, first compound 0.316 µM
[10] = second compound 0.1 µM, first compound 1 µM
[11] = second compound 0.1 µM, first compound 3.16 µM
[12] = second compound 0.1 µM, first compound 10 µM
[13] = second compound 0.316 µM, first compound 0.0316 µM
[14] = second compound 0.316 µM, first compound 0.1 µM
[15] = second compound 0.316 µM, first compound 0.316 µM
[16] = second compound 0.316 µM, first compound 1 µM
[17] = second compound 0.316 µM, first compound 3.16 µM
[18] = second compound 0.316 µM, first compound 10 µM
[19] = second compound 1 µM, first compound 0.0316 µM
[20] = second compound 1 µM, first compound 0.1 µM
[21] = second compound 1 µM, first compound 0.316 µM
[22] = second compound 1 µM, first compound 1 µM
[23] = second compound 1 µM, first compound 3.16 µM
[24] = second compound 1 µM, first compound 10 µM
[25] = second compound 3.16 µM, first compound 0.0316 µM
[26] = second compound 3.16 µM, first compound 0.1 µM
[27] = second compound 3.16 µM, first compound 0.316 µM
[28] = second compound 3.16 µM, first compound 1 µM
[29] = second compound 3.16 µM, first compound 3.16 µM
[30] = second compound 3.16 µM, first compound 10 µM
[31] = second compound 10 µM, first compound 0.0316 µM
[32] = second compound 10 µM, first compound 0.1 µM
[33] = second compound 10 µM, first compound 0.316 µM
[34] = second compound 10 µM, first compound 1 µM
[35] = second compound 10 µM, first compound 3.16 µM
[36] = second compound 10 µM, first compound 10 µM
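Note: spheroids exposed to compounds for seven days.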

C=CCn1c(=O)c2cnc(Nc3ccc(N4CCN(C)CC4)cc3)nc2n1-c1cccc(C(C)(C)O)n1 + Cc1[nH]c2ccc(F)cc2c1-c1nc2c3cccnc3c3ncccc3c2[nH]1
IC50 (second compound 0.0316 µM): 436 nM
IC50 (second compound 0.1 µM): 285 nM
IC50 (second compound 0.316 µM): 420 nM
IC50 (second compound 1 µM): 241 nM
IC50 (second compound 3.16 µM): 192 nM
IC50 (second compound 10 µM): 159 nM
viability, T/C [1]: 94.8%
viability, T/C [2]: 77.8%
viability, T/C [3]: 63.1%
viability, T/C [4]: 19.3%
viability, T/C [5]: 14.9%
viability, T/C [6]: 16.6%
viability, T/C [7]: 98.7%
viability, T/C [8]: 95%
viability, T/C [9]: 45.5%
viability, T/C [10]: 19.7%
viability, T/C [11]: 16.8%
viability, T/C [12]: 18.8%
viability, T/C [13]: 89.6%
viability, T/C [14]: 84.5%
viability, T/C [15]: 60.6%
viability, T/C [16]: 17%
viability, T/C [17]: 18.8%
viability, T/C [18]: 15.2%
viability, T/C [19]: 79.5%
viability, T/C [20]: 71.9%
viability, T/C [21]: 43.6%
viability, T/C [22]: 17.2%
viability, T/C [23]: 18.4%
viability, T/C [24]: 16.6%
viability, T/C [25]: 73%
viability, T/C [26]: 63%
viability, T/C [27]: 40%
viability, T/C [28]: 13.6%
viability, T/C [29]: 21.1%
viability, T/C [30]: 19.1%
viability, T/C [31]: 79%
viability, T/C [32]: 53.2%
viability, T/C [33]: 46.2%
viability, T/C [34]: 16.3%
viability, T/C [35]: 14.5%
viability, T/C [36]: 17.1%

CC(C)(O)C1CCC(Nc2ccc3ncc(-c4cccc(C(F)(F)F)c4)n3n2)CC1 (centres undefined) + Cc1[nH]c2ccc(F)cc2c1-c1nc2c3cccnc3c3ncccc3c2[nH]1
IC50 (second compound 0.0316 µM): 1630 nM
IC50 (second compound 0.1 µM): 2030 nM
IC50 (second compound 0.316 µM): 1930 nM
IC50 (second compound 1 µM): 1710 nM
IC50 (second compound 3.16 µM): 447 nM
IC50 (second compound 10 µM): 548 nM
viability, T/C [1]: 95.6%
viability, T/C [2]: 104%
viability, T/C [3]: 111%
viability, T/C [4]: 59.3%
viability, T/C [5]: 28.3%
viability, T/C [6]: 46.5%
viability, T/C [7]: 75.3%
viability, T/C [8]: 105%
viability, T/C [9]: 90.4%
viability, T/C [10]: 68.1%
viability, T/C [11]: 39.8%
viability, T/C [12]: 33.2%
viability, T/C [13]: 103%
viability, T/C [14]: 97.9%
viability, T/C [15]: 108%
viability, T/C [16]: 73.4%
viability, T/C [17]: 28.5%
viability, T/C [18]: 36.6%
viability, T/C [19]: 76.7%
viability, T/C [20]: 99%
viability, T/C [21]: 106%
viability, T/C [22]: 68.8%
viability, T/C [23]: 26.2%
viability, T/C [24]: 30.9%
viability, T/C [25]: 64.6%
viability, T/C [26]: 70.4%
viability, T/C [27]: 56.2%
viability, T/C [28]: 32.8%
viability, T/C [29]: 15.4%
viability, T/C [30]: 13.8%
viability, T/C [31]: 70.1%
viability, T/C [32]: 85.7%
viability, T/C [33]: 57.3%
viability, T/C [34]: 39.4%
viability, T/C [35]: 12.7%
viability, T/C [36]: 14%
